# Data: patent US20240182461A1, “SELECTIVE ANGIOTENSIN II RECEPTOR LIGANDS” (priority 2021, published 2024)
# pIC50, pKi: −log10 of the molar value. Where two headings read alike, the source gives them in different places.
# Columns and labels:
# [1] = biological target: T1, human recombinant AT1 receptor (Homo sapiens, UniProt P30556); experiment: Radioligand binding to AT1 receptor (Eurofins radiometric scintillation assay); conditions: 1 and 10 μM; ligand 125I(sar1,Ile8)-AT-II
# T1 construct: Eurofins (protocol only) ITEM24
# T1 sequence (P30556 1-359): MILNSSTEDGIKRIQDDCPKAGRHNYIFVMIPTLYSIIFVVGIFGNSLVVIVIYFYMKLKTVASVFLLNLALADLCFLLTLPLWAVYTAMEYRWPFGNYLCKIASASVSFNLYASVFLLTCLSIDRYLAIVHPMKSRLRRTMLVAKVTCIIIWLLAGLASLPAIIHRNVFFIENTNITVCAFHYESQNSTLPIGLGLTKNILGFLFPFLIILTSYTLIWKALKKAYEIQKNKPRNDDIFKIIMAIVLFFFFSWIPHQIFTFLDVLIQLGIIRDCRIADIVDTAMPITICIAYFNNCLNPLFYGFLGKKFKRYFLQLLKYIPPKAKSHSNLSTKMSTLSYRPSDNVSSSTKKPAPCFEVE
# [2] = biological target: T2, human recombinant AT2 receptor (Homo sapiens, UniProt P50052); experiment: Radioligand binding to AT2 receptor (Eurofins radiometric scintillation assay); conditions: ligand 125I CGP 42112A; for pIC50: 1, 10, 100 and 1000 nM, read-out: AT2 GraFit IC50; for pKi: seven-point dose-response curve, read-out: AT2R Ki
# T2 construct: Eurofins (protocol only) ITEM26
# T2 sequence (P50052 1-363): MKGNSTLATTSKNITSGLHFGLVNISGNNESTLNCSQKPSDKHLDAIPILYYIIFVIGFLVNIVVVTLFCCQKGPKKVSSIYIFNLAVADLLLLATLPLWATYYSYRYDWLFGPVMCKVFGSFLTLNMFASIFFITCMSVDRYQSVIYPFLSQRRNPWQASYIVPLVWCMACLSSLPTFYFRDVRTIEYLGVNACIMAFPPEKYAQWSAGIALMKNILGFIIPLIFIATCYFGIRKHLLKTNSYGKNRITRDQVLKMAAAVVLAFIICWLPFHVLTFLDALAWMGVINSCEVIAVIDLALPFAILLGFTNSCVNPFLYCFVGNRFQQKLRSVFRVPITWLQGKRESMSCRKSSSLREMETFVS
# CYP3A4&5 = experiment: CYP inhibition in human liver microsomes, CYP3A4&5 testosterone; assay type: in vitro ADME; conditions: probe testosterone, substrate testosterone, read-out: CYP3A4&5 testosterone Inh %
# CYP2D6 = biological target: T3, CYP2D6 (Homo sapiens, UniProt P10635); experiment: CYP inhibition in human liver microsomes, CYP2D6; assay type: in vitro ADME; conditions: probe dextromethorphan, substrate dextromethorphan, read-out: CYP2D6 Inh %
# T3 construct: incubated with human liver microsomes; from tissue; host or cells: human liver microsomes
# T3 sequence (P10635 whole entry): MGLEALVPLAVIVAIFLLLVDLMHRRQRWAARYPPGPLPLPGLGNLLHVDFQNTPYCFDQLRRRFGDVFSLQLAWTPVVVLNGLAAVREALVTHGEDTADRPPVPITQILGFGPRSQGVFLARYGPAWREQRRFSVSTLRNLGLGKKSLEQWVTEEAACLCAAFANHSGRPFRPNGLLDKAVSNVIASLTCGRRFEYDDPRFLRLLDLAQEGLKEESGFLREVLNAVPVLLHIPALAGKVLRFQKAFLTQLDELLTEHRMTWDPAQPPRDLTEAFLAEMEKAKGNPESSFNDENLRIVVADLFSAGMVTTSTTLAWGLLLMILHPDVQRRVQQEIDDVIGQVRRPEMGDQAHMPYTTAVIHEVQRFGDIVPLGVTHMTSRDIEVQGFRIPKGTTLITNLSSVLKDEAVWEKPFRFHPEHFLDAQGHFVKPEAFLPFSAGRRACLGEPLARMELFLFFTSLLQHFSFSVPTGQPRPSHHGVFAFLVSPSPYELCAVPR
# CYP1A = biological target: T4, CYP1A (Homo sapiens, UniProt P05177); experiment: CYP inhibition in human liver microsomes, CYP1A; assay type: in vitro ADME; conditions: probe phenacetin, substrate phenacetin, read-out: CYP1A Inh %
# T4 construct: incubated with human liver microsomes; from tissue; host or cells: human liver microsomes
# T4 sequence (P05177 whole entry): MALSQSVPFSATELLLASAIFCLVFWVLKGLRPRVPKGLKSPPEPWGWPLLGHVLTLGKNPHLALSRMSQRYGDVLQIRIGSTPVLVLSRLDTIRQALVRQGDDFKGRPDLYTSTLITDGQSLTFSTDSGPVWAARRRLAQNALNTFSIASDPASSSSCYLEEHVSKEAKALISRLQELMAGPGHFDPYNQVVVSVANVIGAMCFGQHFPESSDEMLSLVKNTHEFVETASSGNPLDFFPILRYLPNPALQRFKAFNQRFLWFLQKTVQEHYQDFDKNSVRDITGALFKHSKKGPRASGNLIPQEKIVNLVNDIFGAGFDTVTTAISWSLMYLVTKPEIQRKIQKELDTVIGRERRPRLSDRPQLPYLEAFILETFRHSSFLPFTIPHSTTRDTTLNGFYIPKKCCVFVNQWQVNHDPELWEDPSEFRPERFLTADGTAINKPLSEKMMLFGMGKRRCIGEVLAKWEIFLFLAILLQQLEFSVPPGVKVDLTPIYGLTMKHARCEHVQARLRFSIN
# CYP2B6 = biological target: T5, CYP2B6 (Homo sapiens, UniProt P20813); experiment: CYP inhibition in human liver microsomes, CYP2B6; assay type: in vitro ADME; conditions: probe bupropion, substrate bupropion, read-out: CYP2B6 Inh %
# T5 construct: incubated with human liver microsomes; from tissue; host or cells: human liver microsomes
# T5 sequence (P20813 1-491): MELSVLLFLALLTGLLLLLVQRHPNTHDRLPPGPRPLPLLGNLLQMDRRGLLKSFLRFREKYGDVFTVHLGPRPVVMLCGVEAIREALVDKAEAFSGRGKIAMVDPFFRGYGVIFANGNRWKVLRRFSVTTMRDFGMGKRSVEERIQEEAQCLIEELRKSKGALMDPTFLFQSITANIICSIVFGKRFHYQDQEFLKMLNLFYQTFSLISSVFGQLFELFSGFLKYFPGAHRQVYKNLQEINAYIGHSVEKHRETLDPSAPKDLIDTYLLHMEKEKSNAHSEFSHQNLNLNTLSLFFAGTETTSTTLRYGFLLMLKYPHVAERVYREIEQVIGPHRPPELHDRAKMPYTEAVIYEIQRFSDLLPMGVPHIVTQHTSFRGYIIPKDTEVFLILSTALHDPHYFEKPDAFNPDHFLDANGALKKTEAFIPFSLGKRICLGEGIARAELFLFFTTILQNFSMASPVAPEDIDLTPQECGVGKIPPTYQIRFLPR
# [3] = Metabolic stability in pooled human liver microsomes; assay type: in vitro ADME; conditions: human liver microsomes 0.5 mg/mL, 1 μM compound, 37° C.
# CYP2C19 = biological target: T6, CYP2C19 (Homo sapiens, UniProt P33261); experiment: CYP inhibition in human liver microsomes, CYP2C19; assay type: in vitro ADME; conditions: probe omeprazole, substrate omeprazole, read-out: CYP2C19 Inh %
# T6 construct: incubated with human liver microsomes; from tissue; host or cells: human liver microsomes
# T6 sequence (P33261 whole entry): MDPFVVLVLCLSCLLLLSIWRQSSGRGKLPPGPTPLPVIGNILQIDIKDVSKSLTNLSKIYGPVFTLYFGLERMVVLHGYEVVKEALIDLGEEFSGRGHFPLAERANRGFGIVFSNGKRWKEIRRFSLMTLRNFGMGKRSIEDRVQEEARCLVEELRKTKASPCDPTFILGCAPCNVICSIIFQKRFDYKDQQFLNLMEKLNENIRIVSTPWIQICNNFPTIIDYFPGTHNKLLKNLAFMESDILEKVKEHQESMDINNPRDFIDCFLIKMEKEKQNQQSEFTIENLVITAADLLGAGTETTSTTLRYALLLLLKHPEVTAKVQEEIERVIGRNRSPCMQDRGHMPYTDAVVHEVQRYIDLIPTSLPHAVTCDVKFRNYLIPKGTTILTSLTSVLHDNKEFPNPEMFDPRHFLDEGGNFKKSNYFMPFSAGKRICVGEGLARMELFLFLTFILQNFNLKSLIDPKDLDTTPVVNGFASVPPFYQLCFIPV
# CYP2C9 [4] = biological target: T7, CYP2C9 (Homo sapiens, UniProt P11712); experiment: CYP inhibition in human liver microsomes, CYP2C9; assay type: in vitro ADME; design: incubated with human liver microsomes; from tissue; host or cells: human liver microsomes; conditions: probe diclofenac, substrate diclofenac, read-out: CYP2C9 Inh %
# T7 sequence (P11712 whole entry): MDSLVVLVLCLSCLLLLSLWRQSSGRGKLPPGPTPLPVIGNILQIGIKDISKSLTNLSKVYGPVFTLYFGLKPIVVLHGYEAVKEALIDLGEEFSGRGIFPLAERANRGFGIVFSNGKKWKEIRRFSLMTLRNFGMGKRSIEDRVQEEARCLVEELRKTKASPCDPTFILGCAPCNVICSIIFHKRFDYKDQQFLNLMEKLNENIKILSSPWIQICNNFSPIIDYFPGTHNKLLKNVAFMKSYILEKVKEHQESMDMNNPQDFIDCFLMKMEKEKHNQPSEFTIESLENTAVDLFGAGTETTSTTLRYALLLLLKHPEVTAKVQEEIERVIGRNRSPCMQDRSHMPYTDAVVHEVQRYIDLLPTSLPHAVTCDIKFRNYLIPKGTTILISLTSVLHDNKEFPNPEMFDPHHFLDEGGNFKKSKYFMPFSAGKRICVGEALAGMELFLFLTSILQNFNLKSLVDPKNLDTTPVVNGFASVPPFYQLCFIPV
# CYP3A4 [5] = biological target: T8, CYP3A4 (Homo sapiens, UniProt P08684); experiment: CYP inhibition in human liver microsomes, CYP3A4 midazolam; assay type: in vitro ADME; design: incubated with human liver microsomes; from tissue; host or cells: human liver microsomes; conditions: probe midazolam, substrate midazolam, read-out: CYP3A4 midazolam Inh %
# T8 sequence (P08684 whole entry): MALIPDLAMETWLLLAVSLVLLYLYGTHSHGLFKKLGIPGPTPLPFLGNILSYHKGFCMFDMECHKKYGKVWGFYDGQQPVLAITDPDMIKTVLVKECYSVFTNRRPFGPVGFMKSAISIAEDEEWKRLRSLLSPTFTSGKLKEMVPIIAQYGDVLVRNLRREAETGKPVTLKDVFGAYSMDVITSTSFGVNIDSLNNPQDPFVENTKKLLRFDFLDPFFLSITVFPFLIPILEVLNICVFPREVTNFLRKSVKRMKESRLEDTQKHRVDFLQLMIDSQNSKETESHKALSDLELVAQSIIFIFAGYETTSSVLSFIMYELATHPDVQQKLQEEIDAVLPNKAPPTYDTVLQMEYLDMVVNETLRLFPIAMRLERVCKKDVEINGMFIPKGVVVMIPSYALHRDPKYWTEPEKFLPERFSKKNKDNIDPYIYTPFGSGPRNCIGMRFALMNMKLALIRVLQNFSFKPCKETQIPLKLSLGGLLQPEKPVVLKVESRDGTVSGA
# CYP2C8 = biological target: T9, CYP2C8 (Homo sapiens, UniProt P10632); experiment: CYP inhibition in human liver microsomes, CYP2C8; assay type: in vitro ADME; conditions: probe paclitaxel and amodiaquine, substrates paclitaxel and amodiaquine, read-out: CYP2C8 Inh %
# T9 construct: incubated with human liver microsomes; from tissue; host or cells: human liver microsomes
# T9 sequence (P10632 1-490): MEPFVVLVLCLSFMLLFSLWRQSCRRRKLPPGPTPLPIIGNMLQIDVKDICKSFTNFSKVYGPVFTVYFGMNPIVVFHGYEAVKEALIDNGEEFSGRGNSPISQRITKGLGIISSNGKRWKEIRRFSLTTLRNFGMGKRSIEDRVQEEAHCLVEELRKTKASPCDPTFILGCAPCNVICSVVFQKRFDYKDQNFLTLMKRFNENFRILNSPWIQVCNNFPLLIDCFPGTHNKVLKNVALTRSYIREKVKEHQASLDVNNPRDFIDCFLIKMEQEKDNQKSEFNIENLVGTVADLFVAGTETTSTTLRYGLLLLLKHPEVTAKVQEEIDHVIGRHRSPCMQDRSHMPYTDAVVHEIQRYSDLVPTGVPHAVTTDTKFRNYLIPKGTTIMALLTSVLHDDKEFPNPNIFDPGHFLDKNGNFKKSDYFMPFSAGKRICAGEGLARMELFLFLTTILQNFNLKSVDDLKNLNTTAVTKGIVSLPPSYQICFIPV
# CYP3A4 [6] = biological target: T8, CYP3A4; experiment: CYP inhibition of C21 found during development; assay type: in vitro ADME
# [7] = Metabolic hydrolysis of C21 found during development; assay type: in vitro ADME
# CYP2C9 [8] = biological target: T7, CYP2C9; experiment: CYP inhibition of C21 found during development; assay type: in vitro ADME
# [9] = with 1 mM NADPH, read-out: T1/2, + NaDPH
# [10] = without NADPH, read-out: T1/2, no NaDPH
pIC50 [1],pIC50 [2],pKi [2],inhibition at 10 µM (CYP3A4&5),inhibition at 10 µM (CYP2D6),inhibition at 10 µM (CYP1A),inhibition at 10 µM (CYP2B6),"half-life at 1 μM [3, 9]","half-life at 1 μM [3, 10]",inhibition at 10 µM (CYP2C19),inhibition at 10 µM (CYP2C9 [4]),inhibition at 10 µM (CYP3A4 [5]),inhibition at 10 µM (CYP2C8),inhibition of CYP 3A4 (CYP3A4 [6]),inhibition of CYP 2C9 (CYP2C9 [8]),SMILES,metabolic hydrolysis [7]
5.87,7.89,8.19,–,–,–,–,–,–,–,–,–,–,–,–,"CC(C)Cc1nc(-c2ccc(Cn3ccnc3C(C)(C)C)cc2)c(S(=O)(=O)NC(=O)NCc2cccs2)s1 [Example 1, 4-(4-((2-(tert-Butyl)-1H-imidazol-1-yl)methyl)phenyl)-2-isobutyl-N-((thiophen-2-ylmethyl)carbamoyl)thiazole-5-sulfonamide]",–
5.34,9.37,9.66,–,–,–,–,–,–,–,–,–,–,–,–,"CC(C)Cc1ccc(S(=O)(=O)NC(=O)NCc2ccccn2)c(-c2ccc(Cn3ccnc3C(C)(C)C)cc2)c1 [Example 2, 4′-((2-(tert-Butyl)-1H-imidazol-1-yl)methyl)-5-isobutyl-N-((pyridin-2-ylmethyl)carbamoyl)-[1,1′-biphenyl]-2-sulfonamide]",–
5.92,9.31,9.60,23.5%,26.5%,-35.8%,62.4%,2 min,4 min,60.4%,92.8%,18.1%,87.5%,–,–,"CCCCOC(=O)NS(=O)(=O)c1ccc(CC(C)C)cc1-c1ccc(Cn2ccnc2C(C)(C)C)c(F)c1 [Example 4, Butyl ((4′-((2-(tert-butyl)-1H-imidazol-1-yl)methyl)-3′-fluoro-5-isobutyl-[1,1′-biphenyl]-2-yl)sulfonyl)carbamate]",–
–,–,–,14.5%,-0.8%,7.6%,18.4%,> 60 min,> 60 min,24.6%,32.3%,9.3%,27.7%,–,–,"COC(=O)NS(=O)(=O)c1ccc(CC(C)C)cc1-c1ccc(Cn2ccnc2C)c(F)c1 [Example 13, Methyl ((3′-fluoro-5-isobutyl-4′-((2-methyl-1H-imidazol-1-yl)methyl)-[1,1′-biphenyl]-2-yl)sulfonyl)carbamate]",–
–,–,–,18.4%,2.2%,7%,16.1%,> 60 min,> 60 min,21.5%,59.6%,-5.3%,52.4%,–,–,"CCc1nccn1Cc1ccc(-c2cc(CC(C)C)ccc2S(=O)(=O)NC(=O)OC)cc1F [Example 15, Methyl ((4′-((2-ethyl-1H-imidazol-1-yl)methyl)-3′-fluoro-5-isobutyl-[1,1′-biphenyl]-2-yl)sulfonyl)carbamate]",–
–,9.56,9.85,–,–,–,–,> 60 min,> 60 min,–,–,–,–,–,–,"CC(C)Cc1ccc(S(=O)(=O)NC(=O)OCCO)c(-c2ccc(Cn3ccnc3C(C)(C)C)c(F)c2)c1 [Example 17, 2-Hydroxyethyl (4′-((2-(tert-butyl)-1H-imidazol-1-yl)methyl)-3′-fluoro-5-isobutyl-[1,1′-biphenyl]-2-yl)sulfonylcarbamate]",–
–,8.75,9.03,–,–,–,–,> 60 min,> 60 min,–,–,–,–,–,–,"COC(=O)NS(=O)(=O)c1ccc(CC(C)C)cc1-c1ccc(Cn2ccnc2C)cc1 [Example 18, Methyl (5-isobutyl-4′-((2-methyl-1H-imidazol-1-yl)methyl)-[1,1′-biphenyl]-2-yl)sulfonylcarbamate]",–

# The next lines start with the molecule.
SMILES,pIC50 [1],pIC50 [2],pKi [2],inhibition at 10 µM (CYP3A4&5),inhibition at 10 µM (CYP2D6),inhibition at 10 µM (CYP1A),inhibition at 10 µM (CYP2B6),"half-life at 1 μM [3, 9]","half-life at 1 μM [3, 10]",inhibition at 10 µM (CYP2C19),inhibition at 10 µM (CYP2C9 [4]),inhibition at 10 µM (CYP3A4 [5]),inhibition at 10 µM (CYP2C8),inhibition of CYP 3A4 (CYP3A4 [6]),inhibition of CYP 2C9 (CYP2C9 [8]),metabolic hydrolysis [7]
"CCCCOC(=O)NS(=O)(=O)c1ccc(CC(C)C)cc1-c1ccc(Cn2ccnc2CC)c(F)c1 [Example 11, Butyl ((4′-((2-ethyl-1H-imidazol-1-yl)methyl)-3′-fluoro-5-isobutyl-[1,1′-biphenyl]-2-yl)sulfonyl)carbamate]",–,–,–,30.5%,0.3%,4.3%,35%,26 min,26 min,59.3%,81.3%,5.6%,61.3%,–,–,–
"CCOC(=O)NS(=O)(=O)c1ccc(CC(C)C)cc1-c1ccc(Cn2ccnc2C)c(F)c1 [Example 12, Ethyl ((3′-fluoro-5-isobutyl-4′-((2-methyl-1H-imidazol-1-yl)methyl)-[1,1′-biphenyl]-2-yl)sulfonyl)carbamate]",–,–,–,12.6%,2.9%,5.9%,18.9%,> 60 min,50 min,50.7%,52.6%,8.6%,39.7%,–,–,–
"CCOC(=O)NS(=O)(=O)c1ccc(CC(C)C)cc1-c1ccc(Cn2ccnc2CC)c(F)c1 [Example 14, Ethyl ((4′-((2-ethyl-1H-imidazol-1-yl)methyl)-3′-fluoro-5-isobutyl-[1,1′-biphenyl]-2-yl)sulfonyl)carbamate]",–,–,–,21.9%,0.1%,9.4%,20.6%,43 min,46 min,40.9%,68%,-4.2%,57.6%,–,–,–
"CCCCOC(=O)NS(=O)(=O)c1sc(CC(C)C)cc1-c1ccc(Cn2ccnc2)cc1 [Example C21, N-butyloxycarbonyl-3-(4-imidazol-1-ylmethylphenyl)-5-isobutylthiophene-2-sulfon-amide]",–,–,–,–,–,–,–,–,–,–,–,–,–,potent inhibitor,potent inhibitor,rapidly hydrolysed to an inactive sulfonamide metabolite
